{"source": "patent US11959086B2", "about": "“Dual transit peptides for targeting polypeptides” (BASF AGRO B.V., priority 2016, dated 2024)", "experiment_in_all_cases": "Herbicide injury evaluation of Arabidopsis plants, greenhouse", "type_in_all_cases": "in vivo", "key": {"[1]": {"tested_on": "Wildtype/non-transgenic Arabidopsis thaliana", "conditions": "scale 0-100"}, "[2]": {"tested_on": "transgenic Arabidopsis thaliana, transgene SEQ ID NO 118", "conditions": "scale 0-100"}, "[3]": {"tested_on": "transgenic Arabidopsis thaliana, transgene SEQ ID NO 120", "conditions": "Table 4, scale 0-100"}, "[4]": {"tested_on": "transgenic Arabidopsis thaliana, transgene SEQ ID NO 117", "conditions": "Table 3, scale 0-100"}, "[5]": {"tested_on": "transgenic Arabidopsis thaliana, transgene SEQ ID NO 121", "conditions": "Table 3, scale 0-100"}, "[6]": {"tested_on": "transgenic Arabidopsis thaliana, transgene SEQ ID NO 128", "conditions": "Table 3, scale 0-100"}}, "data": [{"smiles": "CCOC(=O)COc1ncccc1Oc1cc(-n2c(=O)cc(C(F)(F)F)n(C)c2=O)c(F)cc1Cl", "note": "[S3100, ethyl [3-[2-chloro-4-fluoro-5-(1-methyl-6-trifluoromethyl-2,4-dioxo-1,2,3,4-tetrahydropyrimidin-3-yl)phenoxy]-2-pyridyloxy]acetate]", "values": [{"measurement": "Herbicide injury evaluation 14 days after herbicide treatment", "setting": "[1]; Table 4, 50 g ai/ha + 1% MSO", "result": 100}, {"measurement": "Herbicide injury evaluation 14 days after herbicide treatment", "setting": "[1]; Table 4, 100 g ai/ha + 1% MSO", "result": 100}, {"measurement": "Herbicide injury evaluation 14 days after herbicide treatment", "setting": "[1]; Table 4, 200 g ai/ha + 1% MSO", "result": 100}, {"measurement": "Herbicide injury evaluation 14 days after herbicide treatment", "setting": "[2]; Table 4, SEQ ID NO 118 Q, 50 g ai/ha + 1% MSO", "result": 65}, {"measurement": "Herbicide injury evaluation 14 days after herbicide treatment", "setting": "[2]; Table 4, SEQ ID NO 118 Q, 100 g ai/ha + 1% MSO", "result": 65}, {"measurement": "Herbicide injury evaluation 14 days after herbicide treatment", "setting": "[2]; Table 4, SEQ ID NO 118 Q, 200 g ai/ha + 1% MSO", "result": 65}, {"measurement": "Herbicide injury evaluation 14 days after herbicide treatment", "setting": "[2]; Table 4, SEQ ID NO 118 R, 50 g ai/ha + 1% MSO", "result": 60}, {"measurement": "Herbicide injury evaluation 14 days after herbicide treatment", "setting": "[2]; Table 4, SEQ ID NO 118 R, 100 g ai/ha + 1% MSO", "result": 63}, {"measurement": "Herbicide injury evaluation 14 days after herbicide treatment", "setting": "[2]; Table 4, SEQ ID NO 118 R, 200 g ai/ha + 1% MSO", "result": 53}, {"measurement": "Herbicide injury evaluation 14 days after herbicide treatment", "setting": "[3]; SEQ ID NO 120 J, 50 g ai/ha + 1% MSO", "result": 75}, {"measurement": "Herbicide injury evaluation 14 days after herbicide treatment", "setting": "[3]; SEQ ID NO 120 J, 100 g ai/ha + 1% MSO", "result": 95}, {"measurement": "Herbicide injury evaluation 14 days after herbicide treatment", "setting": "[3]; SEQ ID NO 120 J, 200 g ai/ha + 1% MSO", "result": 80}, {"measurement": "Herbicide injury evaluation 14 days after herbicide treatment", "setting": "[3]; SEQ ID NO 120 M, 50 g ai/ha + 1% MSO", "result": 97}, {"measurement": "Herbicide injury evaluation 14 days after herbicide treatment", "setting": "[3]; SEQ ID NO 120 M, 100 g ai/ha + 1% MSO", "result": 85}, {"measurement": "Herbicide injury evaluation 14 days after herbicide treatment", "setting": "[3]; SEQ ID NO 120 M, 200 g ai/ha + 1% MSO", "result": 89}]}, {"smiles": "Cc1nn(-c2cc(NS(C)(=O)=O)c(Cl)cc2Cl)c(=O)n1C(F)F", "note": "[Sulfentrazone, sulfentrazone]", "values": [{"measurement": "Herbicide injury evaluation 14 days after herbicide treatment", "setting": "[1]; Table 3, 280 g ai/ha + 1% MSO", "result": 100}, {"measurement": "Herbicide injury evaluation 14 days after herbicide treatment", "setting": "[1]; Table 3, 560 g ai/ha + 1% MSO", "result": 100}, {"measurement": "Herbicide injury evaluation 14 days after herbicide treatment", "setting": "[1]; Table 3, 1120 g ai/ha + 1% MSO", "result": 100}, {"measurement": "Herbicide injury evaluation 14 days after herbicide treatment", "setting": "[4]; SEQ ID NO 117 C, 280 g ai/ha + 1% MSO", "result": 83}, {"measurement": "Herbicide injury evaluation 14 days after herbicide treatment", "setting": "[4]; SEQ ID NO 117 C, 560 g ai/ha + 1% MSO", "result": 99}, {"measurement": "Herbicide injury evaluation 14 days after herbicide treatment", "setting": "[4]; SEQ ID NO 117 C, 1120 g ai/ha + 1% MSO", "result": 98}, {"measurement": "Herbicide injury evaluation 14 days after herbicide treatment", "setting": "[4]; SEQ ID NO 117 I, 280 g ai/ha + 1% MSO", "result": 89}, {"measurement": "Herbicide injury evaluation 14 days after herbicide treatment", "setting": "[4]; SEQ ID NO 117 I, 560 g ai/ha + 1% MSO", "result": 85}, {"measurement": "Herbicide injury evaluation 14 days after herbicide treatment", "setting": "[4]; SEQ ID NO 117 I, 1120 g ai/ha + 1% MSO", "result": 98}, {"measurement": "Herbicide injury evaluation 14 days after herbicide treatment", "setting": "[2]; Table 3, SEQ ID NO 118 Q, 280 g ai/ha + 1% MSO", "result": 25}, {"measurement": "Herbicide injury evaluation 14 days after herbicide treatment", "setting": "[2]; Table 3, SEQ ID NO 118 Q, 560 g ai/ha + 1% MSO", "result": 40}, {"measurement": "Herbicide injury evaluation 14 days after herbicide treatment", "setting": "[2]; Table 3, SEQ ID NO 118 Q, 1120 g ai/ha + 1% MSO", "result": 48}, {"measurement": "Herbicide injury evaluation 14 days after herbicide treatment", "setting": "[2]; Table 3, SEQ ID NO 118 R, 280 g ai/ha + 1% MSO", "result": 15}, {"measurement": "Herbicide injury evaluation 14 days after herbicide treatment", "setting": "[2]; Table 3, SEQ ID NO 118 R, 560 g ai/ha + 1% MSO", "result": 18}, {"measurement": "Herbicide injury evaluation 14 days after herbicide treatment", "setting": "[2]; Table 3, SEQ ID NO 118 R, 1120 g ai/ha + 1% MSO", "result": 40}, {"measurement": "Herbicide injury evaluation 14 days after herbicide treatment", "setting": "[5]; SEQ ID NO 121 G, 280 g ai/ha + 1% MSO", "result": 100}, {"measurement": "Herbicide injury evaluation 14 days after herbicide treatment", "setting": "[5]; SEQ ID NO 121 G, 560 g ai/ha + 1% MSO", "result": 100}, {"measurement": "Herbicide injury evaluation 14 days after herbicide treatment", "setting": "[5]; SEQ ID NO 121 G, 1120 g ai/ha + 1% MSO", "result": 100}, {"measurement": "Herbicide injury evaluation 14 days after herbicide treatment", "setting": "[5]; SEQ ID NO 121 H, 280 g ai/ha + 1% MSO", "result": 100}, {"measurement": "Herbicide injury evaluation 14 days after herbicide treatment", "setting": "[5]; SEQ ID NO 121 H, 560 g ai/ha + 1% MSO", "result": 100}, {"measurement": "Herbicide injury evaluation 14 days after herbicide treatment", "setting": "[5]; SEQ ID NO 121 H, 1120 g ai/ha + 1% MSO", "result": 100}, {"measurement": "Herbicide injury evaluation 14 days after herbicide treatment", "setting": "[6]; SEQ ID NO 128 D, 280 g ai/ha + 1% MSO", "result": 73}, {"measurement": "Herbicide injury evaluation 14 days after herbicide treatment", "setting": "[6]; SEQ ID NO 128 D, 560 g ai/ha + 1% MSO", "result": 83}, {"measurement": "Herbicide injury evaluation 14 days after herbicide treatment", "setting": "[6]; SEQ ID NO 128 D, 1120 g ai/ha + 1% MSO", "result": 95}, {"measurement": "Herbicide injury evaluation 14 days after herbicide treatment", "setting": "[6]; SEQ ID NO 128 E, 280 g ai/ha + 1% MSO", "result": 70}, {"measurement": "Herbicide injury evaluation 14 days after herbicide treatment", "setting": "[6]; SEQ ID NO 128 E, 560 g ai/ha + 1% MSO", "result": 93}, {"measurement": "Herbicide injury evaluation 14 days after herbicide treatment", "setting": "[6]; SEQ ID NO 128 E, 1120 g ai/ha + 1% MSO", "result": 95}]}]}
